Among the data in the Kinase Knowledgebase extract (Sharma et al. 2016) are Ki and inhibition values, retold here.

pKi: −log10 of the molar value.

For one test, the target named is CDK2 (human) (UniProt P24941). Nature of the test: Enzyme Assay.
Settings: not given
In turn, `CN(C)CCNc1ccc(S(=O)(=O)N2CCC(Nc3nc(N)c(C(=O)c4c(F)cccc4F)s3)CC2)cn1` gave a pKi of 8.92.

Still in this test, the particulars now being: concentration not given here.
Take `Cc1cc(Cl)ccc1C(=O)N1CCC(Nc2nc(N)c(C(=O)c3c(F)cccc3F)s2)CC1`: the inhibition was 45%.

As to `C=CCSc1ncccc1C(=O)N1CCC(Nc2nc(N)c(C(=O)c3c(F)cccc3F)s2)CC1`, the inhibition came out at 48%. With `Nc1cccc(CC(=O)N2CCC(Nc3nc(N)c(C(=O)c4c(F)cccc4F)s3)CC2)c1`, the inhibition was 61%.

Consider `CC(C)(C)c1ccc(CC(=O)N2CCC(Nc3nc(N)c(C(=O)c4c(F)cccc4F)s3)CC2)cc1`, for which the inhibition came out at 55%. For `CC1(C)C2CC[C@]1(CS(=O)(=O)N1CCC(Nc3nc(N)c(C(=O)c4c(F)cccc4F)s3)CC1)C(=O)C2`, the inhibition is -1%. Take `Cc1ccc(CCC(=O)N2CCC(Nc3nc(N)c(C(=O)c4c(F)cccc4F)s3)CC2)cc1`: the inhibition amounted to 36%. Same read-out and setting: in the case of `Nc1nc(NC2CCN(C(=O)c3ccc(Cl)cc3F)CC2)sc1C(=O)c1c(F)cccc1F` it was 68%. With `Cc1cccc(OCC(=O)N2CCC(Nc3nc(N)c(C(=O)c4c(F)cccc4F)s3)CC2)c1`, the inhibition came to 70%. Same read-out and setting: then `CS(=O)(=O)CS(=O)(=O)N1CCC(Nc2nc(N)c(C(=O)c3c(F)cccc3F)s2)CC1`, with -23%. Still for that read-out and setting: in the case of `CN(C)[C@@H](Cc1ccccc1)C(=O)N1CCC(Nc2nc(N)c(C(=O)c3c(F)cccc3F)s2)CC1` it was 10%.

`CC(C)Oc1ccc(C(=O)N2CCC(Nc3nc(N)c(C(=O)c4c(F)cccc4F)s3)CC2)cc1`: the inhibition was 19%. On to `Nc1nc(NC2CCN(S(=O)(=O)c3ccc(Sc4ccncc4)cc3)CC2)sc1C(=O)c1c(F)cccc1F`, for which the inhibition is -25%.

`CO[C@@](C(=O)N1CCC(Nc2nc(N)c(C(=O)c3c(F)cccc3F)s2)CC1)(c1ccccc1)C(F)(F)F`: the inhibition is -6%. `COCCC(=O)N1CCC(Nc2nc(N)c(C(=O)c3c(F)cccc3F)s2)CC1`: the inhibition was found to be 33%. In the case of `Cc1ccc(OCC(=O)N2CCC(Nc3nc(N)c(C(=O)c4c(F)cccc4F)s3)CC2)cc1`, the inhibition worked out at 57%. The same measure, in the same setting: in the case of `Nc1nc(NC2CCN(C(=O)CCCCCc3ccccc3)CC2)sc1C(=O)c1c(F)cccc1F` it was 12%. As for `C=CC(C)C(=O)N1CCC(Nc2nc(N)c(C(=O)c3c(F)cccc3F)s2)CC1` (stereo not given), the inhibition came out at 37%.

Take `CC(C)[C@@H](O)C(=O)N1CCC(Nc2nc(N)c(C(=O)c3c(F)cccc3F)s2)CC1`: the inhibition was 34%. Take `CCC(=O)C(=O)N1CCC(Nc2nc(N)c(C(=O)c3c(F)cccc3F)s2)CC1`: the inhibition is 15%. As to `CCCOc1ccc(C(=O)N2CCC(Nc3nc(N)c(C(=O)c4c(F)cccc4F)s3)CC2)cc1`, the inhibition is 77%.

On to `CC(C)(C)C1CCC(C(=O)N2CCC(Nc3nc(N)c(C(=O)c4c(F)cccc4F)s3)CC2)CC1` (stereo not given), for which the inhibition was 34%. As for `Cn1cccc1C(=O)N1CCC(Nc2nc(N)c(C(=O)c3c(F)cccc3F)s2)CC1`, the inhibition was 38%.

With `CCCCC(CC)COC(=O)N1CCC(Nc2nc(N)c(C(=O)c3c(F)cccc3F)s2)CC1` (stereo not given), the inhibition is -42%.

As to `Nc1nc(NC2CCN(C(=O)c3cc(F)cc(F)c3)CC2)sc1C(=O)c1c(F)cccc1F`, the inhibition was determined as 80%. In the case of `Nc1nc(NC2CCN(C(=O)c3cnccn3)CC2)sc1C(=O)c1c(F)cccc1F`, the inhibition was 58%. As to `Cc1c(S(=O)(=O)N2CCC(Nc3nc(N)c(C(=O)c4c(F)cccc4F)s3)CC2)sc2ccc(Cl)cc12`, the inhibition was -2%. Take `Nc1cc(C(=O)N2CCC(Nc3nc(N)c(C(=O)c4c(F)cccc4F)s3)CC2)ccc1Cl`: the inhibition is 50%.

For the compound `CC1CCCCC1C(=O)N1CCC(Nc2nc(N)c(C(=O)c3c(F)cccc3F)s2)CC1` (stereo not given), the inhibition was 43%. For `COc1ccc(C(=O)N2CCC(Nc3nc(N)c(C(=O)c4c(F)cccc4F)s3)CC2)cc1F`, the inhibition came to 72%. On to `Cc1cc(C)c(/C=C/C(=O)N2CCC(Nc3nc(N)c(C(=O)c4c(F)cccc4F)s3)CC2)cc1C`, for which the inhibition came to 76%. For the compound `Nc1nc(NC2CCN(C(=O)Cc3ccccc3)CC2)sc1C(=O)c1c(F)cccc1F`, the inhibition is 66%. The same measure, in the same setting: then `COc1cccc(OCC(=O)N2CCC(Nc3nc(N)c(C(=O)c4c(F)cccc4F)s3)CC2)c1`, with 61%; and `Nc1nc(NC2CCN(C(=O)CCc3c[nH]c4ccccc34)CC2)sc1C(=O)c1c(F)cccc1F`, with 56%. `Nc1nc(NC2CCN(C(=O)C3CC3)CC2)sc1C(=O)c1c(F)cccc1F`: the inhibition was -2%. For the compound `Nc1nc(NC2CCN(C(=O)C(O)c3ccccc3)CC2)sc1C(=O)c1c(F)cccc1F` (stereo not given), the inhibition was found to be 75%. As for `Nc1nc(NC2CCN(C(=O)COc3cccc(C=O)c3)CC2)sc1C(=O)c1c(F)cccc1F`, the inhibition worked out at 38%. Regarding `Nc1nc(NC2CCN(C(=O)C(O)c3c(F)cccc3F)CC2)sc1C(=O)c1c(F)cccc1F` (stereo not given), the inhibition amounted to 54%. Same read-out and setting: then `Nc1nc(NC2CCN(C(=O)c3ccc(F)c4ccccc34)CC2)sc1C(=O)c1c(F)cccc1F`, with 30%; and `Nc1nc(NC2CCN(C(=O)c3cnnc4ccccc34)CC2)sc1C(=O)c1c(F)cccc1F`, with 28%. As for `COCCOC(=O)N1CCC(Nc2nc(N)c(C(=O)c3c(F)cccc3F)s2)CC1`, the inhibition was -11%.

Take `CCSCC(=O)N1CCC(Nc2nc(N)c(C(=O)c3c(F)cccc3F)s2)CC1`: the inhibition was 63%. On to `COC(=O)CCCC(=O)N1CCC(Nc2nc(N)c(C(=O)c3c(F)cccc3F)s2)CC1`, for which the inhibition was 45%. `CC(=O)N1CSC[C@H]1C(=O)N1CCC(Nc2nc(N)c(C(=O)c3c(F)cccc3F)s2)CC1`: the inhibition was 20%.

For the compound `CN(C)c1ccccc1C(=O)N1CCC(Nc2nc(N)c(C(=O)c3c(F)cccc3F)s2)CC1`, the inhibition stood at 6%. The same measure, in the same setting: then `CC(=O)Nc1cccc(C(=O)N2CCC(Nc3nc(N)c(C(=O)c4c(F)cccc4F)s3)CC2)c1`, with 69%. For the compound `Nc1nc(NC2CCN(C(=O)/C=C/c3ccccc3F)CC2)sc1C(=O)c1c(F)cccc1F`, the inhibition stood at 71%.

On to `CCOCCC(=O)N1CCC(Nc2nc(N)c(C(=O)c3c(F)cccc3F)s2)CC1`, for which the inhibition stood at 18%.

`C=CCC(C)(C)C(=O)N1CCC(Nc2nc(N)c(C(=O)c3c(F)cccc3F)s2)CC1`: the inhibition came out at 14%.

For `Nc1nc(NC2CCN(C(=O)c3ccc4c(c3)CCO4)CC2)sc1C(=O)c1c(F)cccc1F`, the inhibition was 83%. On to `CC/C=C/CC(=O)N1CCC(Nc2nc(N)c(C(=O)c3c(F)cccc3F)s2)CC1`, for which the inhibition was found to be 46%. For the compound `CC(O)(C(=O)N1CCC(Nc2nc(N)c(C(=O)c3c(F)cccc3F)s2)CC1)c1ccccc1` (stereo not given), the inhibition is 49%.

Consider `CC(=O)CCCC(=O)N1CCC(Nc2nc(N)c(C(=O)c3c(F)cccc3F)s2)CC1`, for which the inhibition turned out to be 68%. For the compound `CN(CC(=O)N1CCC(Nc2nc(N)c(C(=O)c3c(F)cccc3F)s2)CC1)C(=O)OC(C)(C)C`, the inhibition was found to be 12%. Still for that read-out and setting: in the case of `Cc1ccc(C2(C(=O)N3CCC(Nc4nc(N)c(C(=O)c5c(F)cccc5F)s4)CC3)CC2)cc1` it was 41%; in that of `CCCCc1ccc(C(=O)N2CCC(Nc3nc(N)c(C(=O)c4c(F)cccc4F)s3)CC2)nc1`, -45%. For `Nc1nc(NC2CCN(C(=O)C3CC(=O)c4ccccc43)CC2)sc1C(=O)c1c(F)cccc1F` (stereo not given), the inhibition is 79%. Still for that read-out and setting: then `C[C@H]1CC[C@H](C(=O)N2CCC(Nc3nc(N)c(C(=O)c4c(F)cccc4F)s3)CC2)CC1`, with 65%; and `Nc1nc(NC2CCN(C(=O)c3cc4ccccc4o3)CC2)sc1C(=O)c1c(F)cccc1F`, with 64%; and `Nc1ccc(C(=O)NCC(=O)N2CCC(Nc3nc(N)c(C(=O)c4c(F)cccc4F)s3)CC2)cc1`, with 65%. With `CC(C)c1ccc(/C=C/C(=O)N2CCC(Nc3nc(N)c(C(=O)c4c(F)cccc4F)s3)CC2)cc1`, the inhibition is 52%.

Consider `Nc1nc(NC2CCN(C(=O)Cc3cccc(O)c3)CC2)sc1C(=O)c1c(F)cccc1F`, for which the inhibition was 44%. In the case of `CC(C)C(O)C(=O)N1CCC(Nc2nc(N)c(C(=O)c3c(F)cccc3F)s2)CC1` (stereo not given), the inhibition worked out at 27%. Turning to `Nc1nc(NC2CCN(C(=O)COc3ccccc3)CC2)sc1C(=O)c1c(F)cccc1F`, the inhibition came to 59%. As for `Nc1nc(NC2CCN(C(=O)C3COc4ccccc4O3)CC2)sc1C(=O)c1c(F)cccc1F` (stereo not given), the inhibition was 58%. As for `Nc1nc(NC2CCN(C(=O)Cc3cccc(F)c3F)CC2)sc1C(=O)c1c(F)cccc1F`, the inhibition worked out at 57%. Take `COc1ccc(OCC(=O)N2CCC(Nc3nc(N)c(C(=O)c4c(F)cccc4F)s3)CC2)cc1`: the inhibition is 74%. As for `Nc1nc(NC2CCN(C(=O)/C=C/c3cccc(F)c3)CC2)sc1C(=O)c1c(F)cccc1F`, the inhibition stood at 70%. For the compound `CCN(CC)C(=O)N1CCC(Nc2nc(N)c(C(=O)c3c(F)cccc3F)s2)CC1`, the inhibition is -43%.

On to `CCOc1cccc(CC(=O)N2CCC(Nc3nc(N)c(C(=O)c4c(F)cccc4F)s3)CC2)c1`, for which the inhibition was found to be 77%. Turning to `CC(O)(CC(=O)N1CCC(Nc2nc(N)c(C(=O)c3c(F)cccc3F)s2)CC1)C(F)(F)F` (stereo not given), the inhibition stood at 64%. In the case of `Nc1nc(NC2CCN(C(=O)c3cccs3)CC2)sc1C(=O)c1c(F)cccc1F`, the inhibition stood at 80%. As for `COc1ncccc1C(=O)N1CCC(Nc2nc(N)c(C(=O)c3c(F)cccc3F)s2)CC1`, the inhibition worked out at 40%.

In the case of `Cc1cnc(C(=O)N2CCC(Nc3nc(N)c(C(=O)c4c(F)cccc4F)s3)CC2)cn1`, the inhibition worked out at 72%.

`CO[C@](C(=O)N1CCC(Nc2nc(N)c(C(=O)c3c(F)cccc3F)s2)CC1)(c1ccccc1)C(F)(F)F`: the inhibition was -29%. Consider `Nc1nc(NC2CCN(C(=O)Cc3cccc(Cl)c3)CC2)sc1C(=O)c1c(F)cccc1F`, for which the inhibition worked out at 62%. `Nc1nc(NC2CCN(C(=O)[C@H]3CCC(=O)O3)CC2)sc1C(=O)c1c(F)cccc1F`: the inhibition was 76%. With `CCOC(=O)C(=O)N1CCC(Nc2nc(N)c(C(=O)c3c(F)cccc3F)s2)CC1`, the inhibition is -13%. In the case of `COC(=O)CCCCC(=O)N1CCC(Nc2nc(N)c(C(=O)c3c(F)cccc3F)s2)CC1`, the inhibition is -5%. On the same count and under the same terms, then `COc1cccc2cc(C(=O)N3CCC(Nc4nc(N)c(C(=O)c5c(F)cccc5F)s4)CC3)oc12`, with 77%.

Broadly, the pKi is −log10 of the Ki, conventionally taken in molar units. Low values mean a high Ki, high ones a low Ki. As usually defined, the inhibition is the relative decrease from the control value, in per cent.
